Measurements taken from patent publication US10781189B2, “1,2,4-Oxadiazole and thiadiazole compounds as immunomodulators” (Aurigene Discovery Technologies Limited, priority 2015, dated 2020).

Molecular target: T1, Recombinant mouse PD-L1 (Mus musculus, UniProt Q9EP73)
T1 construct: Fc (Fc chimera); purchased R&D Systems 1019-B7-100
Assay: Rescue of mouse splenocyte proliferation in the presence of recombinant PD-L1 (CFSE proliferation assay)
Format: cell-based
Conditions: 100 nM compound; CFSE-labelled C57 BL6 mouse splenocytes + anti-CD3/CD28 + PD-L1 (100 ng/mL), 72 h; normalised to stimulated splenocytes as 100%; read-out: Percent rescue of splenocyte proliferation (@100 nM)
Procedure: Example 15: Rescue of Mouse Splenocyte Proliferation in the Presence of Recombinant PD-L1
Recombinant mouse PD-L1 (rm-PDL-1, cat no: 1019-B7-100; R&D Systems) were used as the source of PD-L1.
Mouse splenocytes harvested from 6-8 weeks old C57 BL6 mice; RPMI 1640 (GIBCO, Cat #11875); DMEM with high glucose (GIBCO, Cat # D6429); Fetal Bovine Serum [Hyclone, Cat # SH30071.03]; Penicillin (10000 unit/mL)-Streptomycin (10,000 μg/mL) Liquid (GIBCO, Cat #15140-122); MEM Sodium Pyruvate solution 100 mM (100×), Liquid (GIBCO, Cat #11360); Nonessential amino acid (GIBCO, Cat #11140); L-Glutamine (GIBCO, Cat #25030); Anti-CD3 antibody (eBiosciences—16-0032); Anti-CD28 antibody (eBiosciences—16-0281); ACK lysis buffer (1 mL) (GIBCO, Cat #-A10492); Histopaque (density-1.083 gm/mL) (SIGMA 10831); Trypan blue solution (SIGMA-T8154); 2 mL Norm Ject Luer Lock syringe-(Sigma 2014-12); 40 μm nylon cell strainer (BD FALCON 35230); Hemacytometer (Bright line-SIGMA Z359629); FACS Buffer (PBS/0.1% BSA): Phosphate Buffered Saline (PBS) pH 7.2 (HiMedia TS1006) with 0.1% Bovine Serum Albumin (BSA) (SIGMA A7050) and sodium azide (SIGMA 08591); 5 mM stock solution of CFSE: CFSE stock solution was prepared by diluting lyophilized CFSE with 180 μL of Dimethyl sulfoxide (DMSO C2H6SO, SIGMA-D-5879) and aliquoted in to tubes for further use. Working concentrations were titrated from 10 μM to 1 μM. (eBioscience—650850-85); 0.05% Trypsin and 0.02% EDTA (SIGMA 59417C); 96-well format ELISA plates (Corning CLS3390); BD FACS caliber (E6016); Recombinant mouse B7-H1/PDL1 Fc Chimera, (rm-PD-L1 cat no: 1019-B7-100).
Splenocytes harvested in a 50 mL falcon tube by mashing mouse spleen in a 40 μm cell strainer were further treated with 1 mL ACK lysis buffer for 5 min at room temperature. After washing with 9 mL of RPMI complete media, cells were re-suspended in 3 mL of 1×PBS in a 15 mL tube. 3 mL of Histopaque was added carefully to the bottom of the tube without disturbing overlaying splenocyte suspension. After centrifuging at 800×g for 20 min at room temperature, the opaque layer of splenocytes was collected carefully without disturbing/mixing the layers. Splenocytes were washed twice with cold 1×PBS followed by total cell counting using Trypan Blue exclusion method and used further for cell based assays.
Splenocytes were cultured in RPMI complete media (RPMI+10% fetal bovine serum+1 mM sodium pyruvate+10,000 units/mL penicillin and […] streptomycin) and maintained in a CO2 incubator with 5% CO2 at 37° C.
CFSE is a dye that passively diffuses into cells and binds to intracellular proteins. 1×10^6 cells/mL of harvested splenocytes were treated with 5 μM of CFSE in pre-warmed 1×PBS/0.1% BSA solution for 10 min at 37° C. Excess CFSE was quenched using 5 volumes of ice-cold culture media to the cells and incubated on ice for 5 min. CFSE labelled splenocytes were further given three washes with ice cold complete RPMI media. CFSE labelled 1×10^5 splenocytes added to wells containing either MDA-MB231 cells (1×10^5 cells cultured in high glucose DMEM medium) or recombinant human PDL-1 (100 ng/mL) and test compounds. Splenocytes were stimulated with anti-mouse CD3 and anti-mouse CD28 antibody (1 μg/mL each) and the culture was further incubated for 72 h at 37° C. with 5% CO2. Cells were harvested and washed thrice with ice cold FACS buffer and % proliferation was analysed by flow cytometry with 488 nm excitation and 521 nm emission filters.
Percent splenocyte proliferation was analysed using cell quest FACS program and percent rescue of splenocyte proliferation by compound was estimated after deduction of % background proliferation value and normalising to % stimulated splenocyte proliferation (positive control) as 100%.
Stimulated splenocytes: Splenocytes+anti-CD3/CD28 stimulation
Background proliferation: Splenocytes+anti-CD3/CD28+PD-L1
Compound proliferation: Splenocytes+anti-CD3/CD28+PD-L1+Compound […]

T1 sequence (Q9EP73 with tags, fused parts or gaps limits assumed): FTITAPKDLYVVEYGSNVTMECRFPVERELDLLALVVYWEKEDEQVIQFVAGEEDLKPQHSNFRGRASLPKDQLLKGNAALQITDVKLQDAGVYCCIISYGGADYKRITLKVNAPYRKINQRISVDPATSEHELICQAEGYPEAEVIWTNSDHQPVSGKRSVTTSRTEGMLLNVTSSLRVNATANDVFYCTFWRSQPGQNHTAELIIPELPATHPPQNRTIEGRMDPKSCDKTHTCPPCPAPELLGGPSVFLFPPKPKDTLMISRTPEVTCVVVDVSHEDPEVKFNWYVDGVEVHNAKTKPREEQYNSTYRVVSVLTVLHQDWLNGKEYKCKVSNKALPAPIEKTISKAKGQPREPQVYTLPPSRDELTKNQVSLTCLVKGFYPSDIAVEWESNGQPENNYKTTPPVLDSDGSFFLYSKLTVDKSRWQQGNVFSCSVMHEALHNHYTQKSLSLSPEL

| Structure (SMILES) | activation at 0.1 µM [%] |
| --- | --- |
| C[C@@H](O)[C@H](NC(=O)N[C@@H](CC(N)=O)c1nc([C@@H](N)Cc2c[nH]c3ccccc23)no1)C(=O)O (stereo in doubt) [Compound 41] | 78 |
| CCN(Cc1ccccc1)C(=O)N[C@@H](CC(N)=O)c1nc([C@@H](N)CO)no1 (stereo in doubt) [Compound 94] | 97 |
| C[C@H](NC(=O)N[C@@H](C)c1nc([C@H](C)N)no1)C(=O)O [Compound 1] | 76 |
| CC(O)[C@H](NC(=O)N[C@@H](CC(N)=O)c1nc([C@@H](N)CCC(=O)O)no1)C(=O)O (some centres unmarked) [Compound 2] | 68 |
| CCC(C)[C@H](NC(=O)N[C@@H](CC(N)=O)c1nc([C@@H](N)CO)no1)C(=O)O (some centres unmarked) [Compound 3] | 73 |
| NC(=O)C[C@H](NC(=O)N[C@@H](CCC(=O)O)C(=O)O)c1nc([C@@H](N)CO)no1 [Compound 4] | 44 |
| NCCCC[C@H](NC(=O)N[C@@H](CC(N)=O)c1nc([C@@H](N)CO)no1)C(=O)O [Compound 5] | 38 |
| CC(O)[C@H](NC(=O)N1CCC[C@H]1c1nc([C@@H](N)CO)no1)C(=O)O (some centres unmarked) [Compound 6] | 69 |
| N[C@@H](Cc1ccc(O)cc1)c1noc([C@@H]2CCCN2C(=O)N[C@@H](Cc2ccc(O)cc2)C(=O)O)n1 [Compound 7] | 91 |
| CC(O)[C@H](NC(=O)N[C@@H](CC(N)=O)c1nc([C@@H](N)CCCCN)no1)C(=O)O (some centres unmarked) [Compound 8] | 48 |
| CCC(C)[C@H](N)c1noc([C@H](CC(N)=O)NC(=O)N[C@H](C(=O)O)C(C)O)n1 (some centres unmarked) [Compound 9] | 84 |
| CCC(C)[C@H](NC(=O)N[C@@H](CCC(=O)O)C(=O)O)c1nc([C@@H](N)CCC(N)=O)no1 (some centres unmarked) [Compound 10] | 84 |
| CC(O)[C@H](NC(=O)N[C@@H](CCCCN)c1nc([C@@H](N)CO)no1)C(=O)O (some centres unmarked) [Compound 11] | 66 |
| CC(O)[C@H](NC(=O)N[C@@H](CC(N)=O)c1nc([C@@H](N)Cc2ccccc2)no1)C(=O)O (some centres unmarked) [Compound 13] | 62 |
| CC(O)[C@H](NC(=O)N[C@@H](Cc1ccccc1)c1nc([C@@H](N)CO)no1)C(=O)O (some centres unmarked) [Compound 14] | 92 |
| CC(O)[C@H](NC(=O)N[C@@H](CC(N)=O)c1nc([C@H](C)N)no1)C(=O)O (some centres unmarked) [Compound 15] | 28 |
| CCC(C)[C@H](NC(=O)N[C@H](C(=O)O)C(C)O)c1nc([C@@H](N)CO)no1 (some centres unmarked) [Compound 16] | 50 |
| CC(O)[C@H](NC(=O)N[C@@H](C)c1nc([C@@H](N)CO)no1)C(=O)O (some centres unmarked) [Compound 17] | 58 |
| C[C@H](NC(=O)N[C@@H](CC(N)=O)c1nc([C@@H](N)CO)no1)C(=O)O [Compound 18] | 57 |
| N[C@@H](Cc1ccc(O)cc1)c1noc([C@@H]2C(O)CCN2C(=O)N[C@@H](Cc2ccc(O)cc2)C(=O)O)n1 (some centres unmarked) [Compound 19] | 54 |
| N[C@@H](Cc1ccc(O)cc1)c1noc([C@@H]2CCCCN2C(=O)N[C@@H](Cc2ccc(O)cc2)C(=O)O)n1 [Compound 20] | 51 |
| CC(O)[C@H](NC(=O)N1CCC[C@H]1c1nc([C@@H](N)Cc2ccc(O)cc2)no1)C(=O)O (some centres unmarked) [Compound 21] | 51 |
| N[C@@H](CC(=O)O)c1noc([C@@H]2CCCN2C(=O)N[C@@H](CC(=O)O)C(=O)O)n1 [Compound 23] | 49 |
| N[C@@H](CCC(=O)O)c1noc([C@@H]2CCCN2C(=O)N[C@@H](CC(=O)O)C(=O)O)n1 [Compound 24] | 17 |

| Structure (SMILES) | activation at 0.1 µM [%] |
| --- | --- |
| CC(=O)NCCCC[C@H](NC(=O)N[C@H](C(=O)O)C(C)O)c1nc([C@@H](N)CO)no1 (some centres unmarked) [Compound 27] | 37 |
| NC(=O)CC[C@H](NC(=O)N[C@@H](CC(N)=O)c1nc([C@@H](N)CO)no1)C(=O)O [Compound 28] | 36 |
| N=C(N)NCCC[C@H](N)c1noc([C@H](CC(=O)O)NC(=O)N[C@@H](CO)C(=O)O)n1 [Compound 30] | 65 |
| NCCCC[C@H](N)c1noc([C@H](CC(N)=O)NC(=O)N[C@@H](CO)C(=O)O)n1 [Compound 31] | 42 |
| CC(O)[C@H](NC(=O)N[C@@H](CC(=O)O)c1nc([C@@H](N)CCCNC(=N)N)no1)C(=O)O (some centres unmarked) [Compound 32] | 70 |
| CC(O)[C@H](NC(=O)N[C@@H](CCC(N)=O)c1nc([C@@H](N)CCCNC(=N)N)no1)C(=O)O (some centres unmarked) [Compound 33] | 60 |
| CC(O)[C@H](NC(=O)N[C@@H](CC(=O)O)c1nc([C@@H](N)Cc2cnc[nH]2)no1)C(=O)O (some centres unmarked) [Compound 34] | 59 |
| NCCCC[C@H](NC(=O)N[C@@H](CC(=O)O)c1nc([C@@H](N)Cc2cnc[nH]2)no1)C(=O)O [Compound 35] | 66 |
| NCCCC[C@H](N)c1noc([C@H](CCC(N)=O)NC(=O)N[C@@H](CO)C(=O)O)n1 [Compound 36] | 68 |
| NCCCC[C@H](N)c1noc([C@H](CCC(=O)O)NC(=O)N[C@@H](CO)C(=O)O)n1 [Compound 37] | 60 |
| CC(O)[C@H](NC(=O)N[C@@H](CCC(=O)O)c1nc([C@@H](N)CCCCN)no1)C(=O)O (some centres unmarked) [Compound 38] | 52 |
| NC(=O)C[C@H](NC(=O)N[C@@H](Cc1ccccc1)C(=O)O)c1nc([C@@H](N)CO)no1 [Compound 39] | 75 |
| CC(O)[C@H](NC(=O)N[C@@H](CC(N)=O)c1nc([C@@H](N)C(C)C)no1)C(=O)O (some centres unmarked) [Compound 40] | 67 |
| CC(O)[C@H](NC(=O)N[C@@H](CC(N)=O)c1nc([C@@H](N)Cc2ccc(O)cc2)no1)C(=O)O (some centres unmarked) [Compound 42] | 50 |
| CC(O)[C@H](NC(=O)N[C@@H](Cc1c[nH]c2ccccc12)c1nc([C@@H](N)CO)no1)C(=O)O (some centres unmarked) [Compound 43] | 60 |
| CC(O)[C@H](NC(=O)N[C@H](c1nc([C@@H](N)CO)no1)C(C)C)C(=O)O (some centres unmarked) [Compound 44] | 71 |
| CC(C)[C@H](NC(=O)N[C@@H](CC(N)=O)c1nc([C@@H](N)CCCCN)no1)C(=O)O [Compound 45] | 17 |
| CSCC[C@H](N)c1noc([C@H](CC(N)=O)NC(=O)N[C@@H](CC(=O)O)C(=O)O)n1 [Compound 46] | 53 |
| N[C@@H](CO)c1noc([C@H](CO)NC(=O)N[C@@H](CO)C(=O)O)n1 [Compound 47] | 49 |
| CC(O)[C@H](NC(=O)N[C@@H](CC(N)=O)c1nc([C@@H](N)CO)no1)C(=O)Nc1ccc2c(c1)OCCO2 (some centres unmarked) [Compound 51] | 20 |
| CCC(C)[C@H](N)c1noc([C@@H](NC(=O)N[C@H](C(=O)O)C(C)O)C(C)CC)n1 (some centres unmarked) [Compound 52] | 71 |
| NC(=O)C[C@H](NC(=O)N[C@@H](CC(N)=O)c1nc([C@@H](N)CC(N)=O)no1)C(=O)O [Compound 56] | 26 |
| CC(O)[C@H](N)c1noc([C@H](Cc2ccc(O)cc2)NC(=O)N2CCC[C@H]2C(=O)O)n1 (some centres unmarked) [Compound 60] | 99 |
